# Measured values from patent EP0028778B1, “Antibacterial compositions comprising a beta-lactam-type compound and a 3-substituted propenoate” (Merck & Co., Inc., priority 1979, dated 1981).
# Experiments:
# rabbits [1] = assay: Nephrotoxicity of NFT alone or in combination with DMCO, intravenous, rabbits, 48 hours; format: in vivo, New Zealand white rabbits; conditions: for numbers of rabbits with renal tubular necrosis/numbers of rabbits tested / Renal Tubular Necrosis (degree) / BUN / Creatinine: i.v., 48 hours, rabbits; for Renal Tubular Necrosis (degree): histology; for BUN: mean; for Creatinine: mean serum
# Procedure: The compound N-formimidoyl theinamycin (NFT) and the compound Z-2-(2,2-dimethylcyclopropane carboxamido)-2-ocetenoic acid (DMCO) were tested in rabbits to evaluate nephrootoxicity.
# Either NFT alone or in combination with DMCO was administered intravenously to rabbits. After 48 hours blood samples were taken for determination of BUN and creatinine concentrations and the rabbits were killed for histologic examination of kidney sections.
# The study was initiated with 28 New Zealand white rabbits which ranged in age from 23 to 27 weeks, and in weight from 2.78 to 3.71 kg for males and 2.81 to 3.85 kg for females. All animals were housed in individual stainless steel cages and maintained in climate-controlled rooms with access to food (Purina Rabbit Chow) and tap water ad libitum.
# NFT was administered to six groups of 2 male and 2 female rabbits each at a nominal dose of 180 mg/kg. Five of these groups received DMCO in addition to NFT at nominal doses of 90, 30, 10, 3 or 1 mg/kg. All doses were administered via the marginal ear vein at a dosage volume of 1.89 ml/kg. An additional group of 2 male and 2 female rabbits received 0.9% sterile saline and served as controls.
# NFT was dissolved in solutions of sodium bicarbonate (NFT alone group) or sterile solutions of DMCO in sodium bicarbonate at five different concentrations; these solutions were prepared immediately prior to use.
# The mean BUN and serum creatinine concentrations and the degrees of renal tubular epithelial necrosis are shown below in Table I: […]
# rabbits [2] = assay: as above; format: in vivo, New Zealand white rabbits; conditions: single large doses, within 48 hours, dose rates comparable to those used with cephaloridine
smiles,measurement,setting,value
"C[C@@H](O)[C@H]1C(=O)N2C(C(=O)O)=C(SCCN=CN)C[C@H]12 [NFT, N-formimidoyl thienamycin]",numbers of rabbits with renal tubular necrosis/numbers of rabbits tested,rabbits [1]; NFT 180 mg/kg alone,4/4
same,Renal Tubular Necrosis (degree),rabbits [1]; NFT 180 mg/kg alone,Marked-Severe
same,BUN,rabbits [1]; NFT 180 mg/kg alone,70.0^S mg/100 ml
same,Creatinine,rabbits [1]; NFT 180 mg/kg alone,4.2^S mg/100 ml
same,nephrotoxic potential in the rabbit laboratory model,rabbits [2],nephrotoxic
"CCCCC/C=C(\NC(=O)C1CC1(C)C)C(=O)O (centres unmarked) [DMCO, Z-2-(2,2-dimethylcyclopropanecarboxamido)-2-octenoic acid]",numbers of rabbits with renal tubular necrosis/numbers of rabbits tested,rabbits [1]; NFT 180 mg/kg + DMCO 1 mg/kg,4/4
same,Renal Tubular Necrosis (degree),rabbits [1]; NFT 180 mg/kg + DMCO 1 mg/kg,Marked-Severe
same,BUN,rabbits [1]; NFT 180 mg/kg + DMCO 1 mg/kg,64.7^S mg/100 ml
same,Creatinine,rabbits [1]; NFT 180 mg/kg + DMCO 1 mg/kg,4.2^S mg/100 ml
same,numbers of rabbits with renal tubular necrosis/numbers of rabbits tested,rabbits [1]; NFT 180 mg/kg + DMCO 3 mg/kg,4/4
same,Renal Tubular Necrosis (degree),rabbits [1]; NFT 180 mg/kg + DMCO 3 mg/kg,Marked
same,BUN,rabbits [1]; NFT 180 mg/kg + DMCO 3 mg/kg,65.8^S mg/100 ml
same,Creatinine,rabbits [1]; NFT 180 mg/kg + DMCO 3 mg/kg,4.2^S mg/100 ml
same,numbers of rabbits with renal tubular necrosis/numbers of rabbits tested,rabbits [1]; NFT 180 mg/kg + DMCO 10 mg/kg,4/4
same,Renal Tubular Necrosis (degree),rabbits [1]; NFT 180 mg/kg + DMCO 10 mg/kg,Moderate-Marked
same,BUN,rabbits [1]; NFT 180 mg/kg + DMCO 10 mg/kg,53.1^S mg/100 ml
same,Creatinine,rabbits [1]; NFT 180 mg/kg + DMCO 10 mg/kg,2.9^S mg/100 ml
same,numbers of rabbits with renal tubular necrosis/numbers of rabbits tested,rabbits [1]; NFT 180 mg/kg + DMCO 30 mg/kg,4/4
same,Renal Tubular Necrosis (degree),rabbits [1]; NFT 180 mg/kg + DMCO 30 mg/kg,V. Sl.-Moderate
same,BUN,rabbits [1]; NFT 180 mg/kg + DMCO 30 mg/kg,26.1^NS mg/100 ml
same,Creatinine,rabbits [1]; NFT 180 mg/kg + DMCO 30 mg/kg,1.3^NS mg/100 ml
same,numbers of rabbits with renal tubular necrosis/numbers of rabbits tested,rabbits [1]; NFT 180 mg/kg + DMCO 90 mg/kg,0/4
same,Renal Tubular Necrosis (degree),rabbits [1]; NFT 180 mg/kg + DMCO 90 mg/kg,None
same,BUN,rabbits [1]; NFT 180 mg/kg + DMCO 90 mg/kg,16.6^NS mg/100 ml
same,Creatinine,rabbits [1]; NFT 180 mg/kg + DMCO 90 mg/kg,1.2^NS mg/100 ml
same,ability to prevent nephrotoxicity,"rabbits [1]; co-administration with the antibiotic, general statement",has been shown to possess this property
